According to patent US20160279246A1, “METHODS AND SYSTEMS FOR CONTINUOUS HETEROGENEOUS CRYSTALLIZATION” (Massachusetts Institute of Technology, priority 2015, published 2016):

Assay: Solubility of API and excipient in the solvent ethanol
Assay type: physicochemical
From the text: The API-Excipient-Solvent selection was important to this process. The specific API chosen was soluble in the solvent; however the excipient was insoluble in the same solvent. The API-Excipient combination was such that the API molecules easily nucleate on the surface of the excipient. Use of low supersaturation stopped primary nucleation, and ensures the presence of heterogeneous nuclei alone. These nuclei grew further during their stay inside the column. Tuning of residence time and supersaturation helps in tuning of the loading (weight of API per unit weight of product) of excipient particles with drug.
An exemplary embodiment was implemented with Acetaminophen-D-mannitol-Ethanol as a sample API-Excipient-Solvent system. Acetaminophen was soluble in ethanol; however D-mannitol was insoluble in ethanol.

Solubility in ethanol | SMILES
soluble | CC(=O)Nc1ccc(O)cc1 [Acetaminophen]
insoluble | OC[C@@H](O)[C@@H](O)[C@H](O)[C@H](O)CO [D-mannitol]
